Test results: ChEMBL document CHEMBL2440076, “New triarylpyrazoles as broad-spectrum anticancer agents: design, synthesis, and biological evaluation” (Eur J Med Chem, 2013)

What was measured:
NCI-H23 [1] = test: Growth inhibition of human NCI-H23 cells assessed as cell growth at 10 uM after 48 hrs by sulforhodamine B assay; type: functional; details: NCI-H23, 48 h, read-out: Activity
SNB-19 [2] = test: Growth inhibition of human SNB19 cells after 48 hrs by sulforhodamine B assay; type: functional; details: SNB-19, 48 h
COLO 205 = test: Growth inhibition of human COLO205 cells assessed as cell growth at 10 uM after 48 hrs by sulforhodamine B assay; type: functional; details: COLO 205, 48 h, read-out: Activity
OVCAR-3 = test: Growth inhibition of human OVCAR3 cells after 48 hrs by sulforhodamine B assay; type: functional, cell-based; details: OVCAR-3, 48 h; for CC50: read-out: LC50 (the source's name)
OVCAR-8 = test: Growth inhibition of human OVCAR8 cells assessed as cell growth at 10 uM after 48 hrs by sulforhodamine B assay; type: functional; details: OVCAR-8, 48 h, read-out: Activity
786-0 [3] = test: Growth inhibition of human 786-0 cells assessed as cell growth at 10 uM after 48 hrs by sulforhodamine B assay; type: functional; details: 786-0, 48 h, read-out: Activity
[4] = Growth inhibition of human HCC2998 cells after 48 hrs by sulforhodamine B assay; type: functional; details: HCC 2998, 48 h; for CC50: read-out: LC50 (the source's name)
HOP-62 = test: Growth inhibition of human HOP62 cells assessed as cell growth at 10 uM after 48 hrs by sulforhodamine B assay; type: functional; details: HOP-62, 48 h, read-out: Activity
NCI-H460 = test: Growth inhibition of human NCI-H460 cells assessed as cell growth at 10 uM after 48 hrs by sulforhodamine B assay; type: functional; details: NCI-H460, 48 h, read-out: Activity
M14 [5] = test: Growth inhibition of human M14 cells assessed as cell growth at 10 uM after 48 hrs by sulforhodamine B assay; type: functional; details: M14, 48 h, read-out: Activity
UO-31 = test: Growth inhibition of human UO31 cells assessed as cell growth at 10 uM after 48 hrs by sulforhodamine B assay; type: functional; details: UO-31, 48 h, read-out: Activity
786-0 [6] = test: Growth inhibition of human 786-0 cells after 48 hrs by sulforhodamine B assay; type: functional; details: 786-0, 48 h; for CC50: read-out: LC50 (the source's name)
Malme-3M = test: Growth inhibition of human MALME-3M cells assessed as cell growth at 10 uM after 48 hrs by sulforhodamine B assay; type: functional; details: read-out: Activity
M14 [7] = test: Growth inhibition of human M14 cells after 48 hrs by sulforhodamine B assay; type: functional; details: M14, 48 h
SR = test: Growth inhibition of human SR cells after 48 hrs by sulforhodamine B assay; type: functional; details: for CC50: read-out: LC50 (the source's name)
HOP-92 = test: Growth inhibition of human HOP92 cells after 48 hrs by sulforhodamine B assay; type: functional, cell-based; details: HOP-92, 48 h
UACC-257 = test: Growth inhibition of human UACC257 cells after 48 hrs by sulforhodamine B assay; type: functional; details: UACC-257, 48 h; for CC50: read-out: LC50 (the source's name)
SF-268 = test: Growth inhibition of human SF268 cells assessed as cell growth at 10 uM after 48 hrs by sulforhodamine B assay; type: functional; details: SF-268, 48 h, read-out: Activity
SK-MEL-28 = test: Growth inhibition of human SK-MEL-28 cells after 48 hrs by sulforhodamine B assay; type: functional; details: SK-MEL-28, 48 h
HCT-116 = test: Growth inhibition of human HCT116 cells assessed as cell growth at 10 uM after 48 hrs by sulforhodamine B assay; type: functional; details: HCT-116, 48 h, read-out: Activity
SK-MEL-2 = test: Growth inhibition of human SK-MEL-2 cells assessed as cell growth at 10 uM after 48 hrs by sulforhodamine B assay; type: functional; details: SK-MEL-2, 48 h, read-out: Activity
PC-3 = test: Growth inhibition of human PC3 cells assessed as cell growth at 10 uM after 48 hrs by sulforhodamine B assay; type: functional; details: PC-3, 48 h, read-out: Activity
SK-OV-3 [8] = test: Growth inhibition of human SKOV3 cells assessed as cell growth at 10 uM after 48 hrs by sulforhodamine B assay; type: functional; details: SK-OV-3, 48 h, read-out: Activity
HT-29 [9] = test: Growth inhibition of human HT-29 cells assessed as cell growth at 10 uM after 48 hrs by sulforhodamine B assay; type: functional; details: HT-29, 48 h, read-out: Activity
HL-60(TB) = test: Growth inhibition of human HL-60(TB) cells after 48 hrs by sulforhodamine B assay; type: functional; details: HL-60, 48 h; for CC50: read-out: LC50 (the source's name)
ACHN = test: Growth inhibition of human ACHN cells after 48 hrs by sulforhodamine B assay; type: functional; details: for CC50: read-out: LC50 (the source's name)
LOX IMVI [10] = test: Growth inhibition of human LOXIMVI cells assessed as cell growth at 10 uM after 48 hrs by sulforhodamine B assay; type: functional; details: read-out: Activity
SNB-19 [11] = test: Growth inhibition of human SNB19 cells assessed as cell growth at 10 uM after 48 hrs by sulforhodamine B assay; type: functional; details: SNB-19, 48 h, read-out: Activity
HT-29 [12] = test: Growth inhibition of human HT-29 cells after 48 hrs by sulforhodamine B assay; type: functional; details: HT-29, 48 h; for CC50: read-out: LC50 (the source's name)
SK-OV-3 [13] = test: Growth inhibition of human SKOV3 cells after 48 hrs by sulforhodamine B assay; type: functional; details: SK-OV-3, 48 h; for CC50: read-out: LC50 (the source's name)
NCI-H23 [14] = test: Growth inhibition of human NCI-H23 cells after 48 hrs by sulforhodamine B assay; type: functional; details: NCI-H23, 48 h
SK-MEL-5 = test: Growth inhibition of human SK-MEL-5 cells after 48 hrs by sulforhodamine B assay; type: functional; details: SK-MEL-5, 48 h
LOX IMVI [15] = test: Growth inhibition of human LOXIMVI cells after 48 hrs by sulforhodamine B assay; type: functional
UACC-62 = test: Growth inhibition of human UACC62 cells after 48 hrs by sulforhodamine B assay; type: functional; details: UACC-62, 48 h

O=C(Nc1cccc(-n2cc(-c3ccncc3)c(-c3ccc(Cl)c(O)c3)n2)c1)Nc1cc(C(F)(F)F)cc(C(F)(F)F)c1
growth at 10 µM (NCI-H23 [1]): -7.93%
GI50 (SNB-19 [2]): 0.983 µM
LC50 (concentration killing 50% of cells) (SNB-19 [2]): > 50 µM
TGI (SNB-19 [2]): 8.96 µM
growth at 10 µM (COLO 205): -97.3%
GI50 (OVCAR-3): 0.395 µM
IC50 (OVCAR-3): 0.4 µM
TGI (OVCAR-3): 1.2 µM
CC50 (OVCAR-3): 3.31 µM
growth at 10 µM (OVCAR-8): -12.2%
growth at 10 µM (786-0 [3]): -46.8%
GI50 [4]: 1.03 µM
TGI [4]: 2.41 µM
CC50 [4]: 7.16 µM
growth at 10 µM (HOP-62): -86.1%
growth at 10 µM (NCI-H460): -55.7%
growth at 10 µM (M14 [5]): -37.2%
growth at 10 µM (UO-31): -34.4%
GI50 (786-0 [6]): 1.17 µM
TGI (786-0 [6]): 3.16 µM
CC50 (786-0 [6]): 18 µM
growth at 10 µM (Malme-3M): -23%
GI50 (M14 [7]): 0.607 µM
LC50 (concentration killing 50% of cells) (M14 [7]): 6.06 µM
TGI (M14 [7]): 1.81 µM
GI50 (SR): 0.922 µM
TGI (SR): 3.66 µM
CC50 (SR): > 50 µM
GI50 (HOP-92): 0.344 µM
IC50 (HOP-92): 0.34 µM
LC50 (HOP-92): 8.66 µM
TGI (HOP-92): 1.75 µM
GI50 (UACC-257): 0.965 µM
TGI (UACC-257): 2.55 µM
CC50 (UACC-257): 10.6 µM
growth at 10 µM (SF-268): -36.4%
GI50 (SK-MEL-28): 0.796 µM
LC50 (SK-MEL-28): 3.09 µM
TGI (SK-MEL-28): 1.57 µM
growth at 10 µM (HCT-116): -59.1%
growth at 10 µM (SK-MEL-2): -73.7%
growth at 10 µM (PC-3): -32.4%
growth at 10 µM (SK-OV-3 [8]): -24.4%
growth at 10 µM (HT-29 [9]): -56%
GI50 (HL-60(TB)): 1.5 µM
TGI (HL-60(TB)): 13.5 µM
CC50 (HL-60(TB)): > 50 µM
GI50 (ACHN): 0.624 µM
TGI (ACHN): 5.27 µM
CC50 (ACHN): 17.3 µM
growth at 10 µM (LOX IMVI [10]): -94.1%
growth at 10 µM (SNB-19 [11]): 11.3%
GI50 (HT-29 [12]): 0.746 µM
TGI (HT-29 [12]): 1.87 µM
CC50 (HT-29 [12]): 4.67 µM
GI50 (SK-OV-3 [13]): 1.35 µM
TGI (SK-OV-3 [13]): 3.81 µM
CC50 (SK-OV-3 [13]): > 50 µM
GI50 (NCI-H23 [14]): 1.02 µM
LC50 (NCI-H23 [14]): 18.2 µM
TGI (NCI-H23 [14]): 3.27 µM
GI50 (SK-MEL-5): 0.6 µM
LC50 (concentration killing 50% of cells) (SK-MEL-5): 2.62 µM
TGI (SK-MEL-5): 1.25 µM
GI50 (LOX IMVI [15]): 0.712 µM
LC50 (LOX IMVI [15]): 2.75 µM
TGI (LOX IMVI [15]): 1.4 µM
GI50 (UACC-62): 0.749 µM
LC50 (50% lethal concentration) (UACC-62): 8.46 µM
TGI (UACC-62): 2.19 µM

O=C(Nc1cccc(-n2cc(-c3ccncc3)c(-c3ccc(Cl)c(O)c3)n2)c1)c1ccc(N2CCOCC2)c(C(F)(F)F)c1
growth at 10 µM (NCI-H23 [1]): 61.3%
GI50 (SNB-19 [2]): 4.11 µM
LC50 (concentration killing 50% of cells) (SNB-19 [2]): > 50 µM
TGI (SNB-19 [2]): > 50 µM
growth at 10 µM (COLO 205): 96.1%
GI50 (OVCAR-3): 4.81 µM
IC50 (OVCAR-3): 4.81 µM
TGI (OVCAR-3): > 50 µM
CC50 (OVCAR-3): > 50 µM
growth at 10 µM (OVCAR-8): 37%
growth at 10 µM (786-0 [3]): 59.6%
GI50 [4]: 5.66 µM
TGI [4]: > 50 µM
CC50 [4]: > 50 µM
growth at 10 µM (HOP-62): 40.4%
growth at 10 µM (NCI-H460): 5.81%
growth at 10 µM (M14 [5]): 22.7%
growth at 10 µM (UO-31): 36.9%
GI50 (786-0 [6]): 2.83 µM
TGI (786-0 [6]): 12.5 µM
CC50 (786-0 [6]): 46.3 µM
growth at 10 µM (Malme-3M): 10.7%
GI50 (M14 [7]): 1.63 µM
LC50 (concentration killing 50% of cells) (M14 [7]): 49.6 µM
TGI (M14 [7]): 9.1 µM
GI50 (SR): 1.63 µM
TGI (SR): > 50 µM
CC50 (SR): > 50 µM
GI50 (HOP-92): 0.555 µM
IC50 (HOP-92): 0.56 µM
LC50 (HOP-92): > 50 µM
TGI (HOP-92): 3.81 µM
GI50 (UACC-257): 6.3 µM
TGI (UACC-257): 36.8 µM
CC50 (UACC-257): > 50 µM
growth at 10 µM (SF-268): 55.5%
GI50 (SK-MEL-28): 1.5 µM
LC50 (SK-MEL-28): 42.9 µM
TGI (SK-MEL-28): 6.04 µM
growth at 10 µM (HCT-116): 29.6%
growth at 10 µM (SK-MEL-2): 17.6%
growth at 10 µM (PC-3): 27.2%
growth at 10 µM (SK-OV-3 [8]): 74.2%
growth at 10 µM (HT-29 [9]): 98%
GI50 (HL-60(TB)): 3.81 µM
TGI (HL-60(TB)): > 50 µM
CC50 (HL-60(TB)): > 50 µM
GI50 (ACHN): 1.92 µM
TGI (ACHN): > 50 µM
CC50 (ACHN): > 50 µM
growth at 10 µM (LOX IMVI [10]): 9.98%
growth at 10 µM (SNB-19 [11]): 65.7%
GI50 (HT-29 [12]): 14.4 µM
TGI (HT-29 [12]): > 50 µM
CC50 (HT-29 [12]): > 50 µM
GI50 (SK-OV-3 [13]): 20 µM
TGI (SK-OV-3 [13]): > 50 µM
CC50 (SK-OV-3 [13]): > 50 µM
GI50 (NCI-H23 [14]): 4.2 µM
LC50 (NCI-H23 [14]): > 50 µM
TGI (NCI-H23 [14]): 30.1 µM
GI50 (SK-MEL-5): 2.47 µM
LC50 (concentration killing 50% of cells) (SK-MEL-5): 31.8 µM
TGI (SK-MEL-5): 10.2 µM
GI50 (LOX IMVI [15]): 1.64 µM
LC50 (LOX IMVI [15]): 44.8 µM
TGI (LOX IMVI [15]): 7.3 µM
GI50 (UACC-62): 3.26 µM
LC50 (50% lethal concentration) (UACC-62): > 50 µM
TGI (UACC-62): 18.4 µM
